Test results as given in the supplement of paper PMC13380429.

Legend:
Settings in all cases: 72 h
Vero E6 [1] = assay: cell viability relative to DMSO; higher = less toxic
HepG2 [2] = assay: as above
U2OS [3] = assay: as above
Caco-2 [4] = assay: as above
Calu-3 [5] = assay: as above
Vero E6 [6] = assay: relative viability EC50 (midpoint between 100% and the lowest measured viability); higher = less toxic
U2OS [7] = assay: as above
Caco-2 [8] = assay: as above
Calu-3 [9] = assay: as above
Vero E6 [10] = assay: drug sensitivity score (DSS) for viability; higher = more toxic; extreme values may be limits of the assay
HepG2 [11] = assay: as above
U2OS [12] = assay: as above
Caco-2 [13] = assay: as above
Calu-3 [14] = assay: as above
HepG2 [15] = assay: relative viability EC50 (midpoint between 100% and the lowest measured viability); higher = less toxic

Row | SMILES | cell viability (Vero E6 [1]; 1 nM) | cell viability (Vero E6 [1]; 10 nM) | cell viability (Vero E6 [1]; 100 nM) | cell viability (Vero E6 [1]; 1000 nM) | cell viability (Vero E6 [1]; 10000 nM) | cell viability (HepG2 [2]; 1 nM) | cell viability (HepG2 [2]; 10 nM) | cell viability (HepG2 [2]; 100 nM) | cell viability (HepG2 [2]; 1000 nM) | cell viability (HepG2 [2]; 10000 nM) | cell viability (U2OS [3]; 1 nM) | cell viability (U2OS [3]; 10 nM) | cell viability (U2OS [3]; 100 nM) | cell viability (U2OS [3]; 1000 nM) | cell viability (U2OS [3]; 10000 nM) | cell viability (Caco-2 [4]; 1 nM) | cell viability (Caco-2 [4]; 10 nM) | cell viability (Caco-2 [4]; 100 nM) | cell viability (Caco-2 [4]; 1000 nM) | cell viability (Caco-2 [4]; 10000 nM) | cell viability (Calu-3 [5]; 1 nM) | cell viability (Calu-3 [5]; 10 nM) | cell viability (Calu-3 [5]; 100 nM) | cell viability (Calu-3 [5]; 1000 nM) | cell viability (Calu-3 [5]; 10000 nM) | relative viability EC50 (Vero E6 [6]) | relative viability EC50 (U2OS [7]) | relative viability EC50 (Caco-2 [8]) | relative viability EC50 (Calu-3 [9]) | drug sensitivity score (Vero E6 [10]) | drug sensitivity score (HepG2 [11]) | drug sensitivity score (U2OS [12]) | drug sensitivity score (Caco-2 [13]) | drug sensitivity score (Calu-3 [14]) | relative viability EC50 (HepG2 [15])
1 | Cn1nnc(-c2ccc(-c3ccc(N4C[C@H](COP(=O)(O)O)OC4=O)cc3F)cn2)n1 [tedizolid-phosphate] | 98.5% | 101% | 97.9% | 89.3% | 89.8% | 106% | 96.9% | 91% | 71.7% | 53.1% | 98.8% | 98.5% | 97.1% | 93.8% | 93.4% | 108% | 97.8% | 94.2% | 87.3% | 87.9% | 102% | 103% | 114% | 86.1% | 97.6% | > 10 µM | > 10 µM | > 10 µM | > 10 µM | 0.2 | 6.1 | 0 | 0.8 | 0.9 | –
2 | Oc1c(Cl)cc(Cl)c(Cl)c1Cc1c(O)c(Cl)cc(Cl)c1Cl [hexachlorophene] | 102% | 102% | 100% | 99.9% | 82% | 98% | 98.3% | 94% | 94.4% | 23.8% | 97.8% | 96.8% | 92.9% | 96.1% | 70.9% | 95% | 97.1% | 92.3% | 91.6% | 20.9% | 107% | 103% | 107% | 99.4% | 94.2% | > 10 µM | – | 2.29 µM | > 10 µM | 0.5 | 5.1 | 1.9 | 5.8 | 0 | 2.57 µM
3 | CN(C)C(=O)c1ccc(S(=O)(=O)c2ccc(NC(=O)[C@@](C)(O)C(F)(F)F)c(Cl)c2)cc1 [AZD7545] | 101% | 99% | 99.7% | 89% | 90.9% | 94.3% | 99.1% | 95% | 99.1% | 61% | 94.5% | 104% | 91.9% | 103% | 84.9% | 103% | 96.3% | 96.7% | 96.1% | 79.6% | 99.6% | 107% | 85.2% | 94% | 102% | > 10 µM | > 10 µM | > 10 µM | > 10 µM | 0.2 | 2 | 0.1 | 1.2 | 0 | –
4 | O=c1c2ccccc2[se]n1-c1ccccc1 [ebselen] | 96.4% | 98.5% | 99.4% | 97.6% | 104% | – | – | – | – | – | 97.4% | 98.7% | 105% | 97.4% | 102% | 88% | 102% | 107% | 88.5% | 100% | 107% | 93.5% | 91.3% | 87.6% | 111% | > 10 µM | > 10 µM | > 10 µM | > 10 µM | 0 | – | 0 | 0 | 0 | –
5 | O=C1Nc2ccc(I)cc2C1=Cc1cc(Br)c(O)c(Br)c1 [GW-5074] | 97% | 97.3% | 95.8% | 96% | 108% | 90.3% | 98.5% | 97.3% | 97.5% | 68.9% | 99.3% | 97.3% | 100% | 96.1% | 95.5% | 95.6% | 97.5% | 108% | 95% | 88.3% | 95.1% | 94.2% | 104% | 90.9% | 114% | > 10 µM | > 10 µM | > 10 µM | > 10 µM | 0 | 1.8 | 0 | 0.2 | 0 | –
6 | COc1cc(C[C@@H](CO)[C@H](CO)Cc2ccc(O)c(OC)c2)ccc1O [secoisolariciresinol-(-)] | 113% | 110% | 98.6% | 97.3% | 99.3% | – | – | – | – | – | 100% | 99.1% | 98.7% | 104% | 93.8% | 94.7% | 102% | 87.6% | 93% | 94.7% | 98.7% | 102% | 107% | 91.9% | 92.4% | > 10 µM | > 10 µM | > 10 µM | > 10 µM | 0 | – | 0 | 0 | 0 | –
7 | CC(=O)OC/C=C(C)/C=C/C=C(C)/C=C/C1=C(C)CCCC1(C)C [retinyl-acetate] | 103% | 103% | 102% | 98% | 102% | – | – | – | – | – | – | – | – | – | – | 112% | 99% | 104% | 95.9% | 114% | 93.7% | 90.4% | 112% | 90.7% | 93.3% | > 10 µM | – | > 10 µM | > 10 µM | 0 | – | – | 0 | 0 | –
8 | O=C1C[C@@H](c2ccc(O)cc2)Oc2cc(O)ccc21 [MF-101] | 101% | 102% | 95.3% | 92.1% | 99.8% | 95.8% | 93.7% | 103% | 97.6% | 90.4% | 98.4% | 95.4% | 96.4% | 99.7% | 95.9% | 81.1% | 99.7% | 92.3% | 103% | 78.1% | 103% | 112% | 106% | 104% | 99.4% | > 10 µM | > 10 µM | – | > 10 µM | 0 | 0 | 0 | 0.4 | 0 | > 10 µM
9 | CC[C@H]1OC(=O)C[C@@H](O)[C@H](C)[C@@H](O[C@@H]2O[C@H](C)C[C@H](N(C)C)[C@H]2O)[C@@H](CC=O)C[C@@H](C)C(=O)/C=C/[C@]2(C)O[C@H]2[C@@H]1C [rosamicin] | 94.7% | 102% | 92.9% | 97% | 90.9% | 87% | 106% | 98.4% | 103% | 28.9% | 100% | 94.2% | 98.8% | 99.4% | 37.1% | 94.6% | 102% | 101% | 100% | 71.5% | 101% | 84.5% | 101% | 107% | 87.2% | > 10 µM | 3.09 µM | – | > 10 µM | 0 | 3.7 | 3.5 | 1.2 | 0 | 3.41 µM
10 | CN(C)c1nc(N)c(C(=O)Nc2cccnc2)nc1Cl [ACDPP] | 102% | 95.3% | 98.3% | 95.1% | 99.9% | 104% | 105% | 103% | 80.9% | 58.9% | 93.6% | 98% | 97.7% | 98.5% | 105% | 87.4% | 98.7% | 93% | 89.2% | 87.9% | 100% | 96.8% | 104% | 96.4% | 94.6% | > 10 µM | > 10 µM | > 10 µM | > 10 µM | 0 | 4.5 | 0 | 0 | 0 | –
11 | CCc1c(C(=O)C(N)=O)c2c(OCC(=O)O)cccc2n1Cc1ccccc1 [varespladib] | 104% | 102% | 107% | 103% | 99.5% | 93.3% | 105% | 96.2% | 101% | 97.7% | – | – | – | – | – | 106% | 90.1% | 94.4% | 93% | 106% | 104% | 99.2% | 91.2% | 110% | 101% | > 10 µM | – | > 10 µM | > 10 µM | 0 | 0 | – | 0 | 0 | > 10 µM
12 | Cc1cc2cc3c(C)cc(=O)oc3c(C)c2o1 [trioxsalen] | 97.4% | 96% | 99.5% | 97.5% | 96.3% | 104% | 88.8% | 94.7% | 86.1% | 65.8% | 103% | 105% | 101% | 106% | 99.6% | 111% | 99.6% | 91.3% | 92.4% | 80.5% | 105% | 96.3% | 106% | 120% | 108% | > 10 µM | > 10 µM | > 10 µM | > 10 µM | 0 | 2.9 | 0 | 1 | 0 | –
13 | CCc1ccc2c(-c3cccc(Cl)c3)nc(=O)n(CC)c2n1 [YM-976] | 96.6% | 97.3% | 92.3% | 90.1% | 91.9% | 95.9% | 104% | 97% | 103% | 86.3% | – | – | – | – | – | 104% | 95.6% | 104% | 109% | 97.1% | 109% | 98.7% | 101% | 98.3% | 108% | > 10 µM | – | > 10 µM | > 10 µM | 0 | 0.1 | – | 0 | 0 | > 10 µM
14 | O=C(Nc1ccc(S(=O)(=O)C(F)(F)F)cc1)C1=CCN(c2ncccc2C(F)(F)F)CC1 | 99.6% | 91.7% | 91.3% | 88.9% | 94.7% | 107% | 87.9% | 104% | 96.2% | 38.6% | 96.1% | 101% | 93.2% | 101% | 84.9% | 97.3% | 98.4% | 90.7% | 97.4% | 62.4% | 96.2% | 106% | 99.6% | 101% | 79.9% | > 10 µM | > 10 µM | – | > 10 µM | 0.7 | 3.9 | 0.2 | 2.2 | 0.5 | 2.67 µM
15 | O=c1c2ccccc2[se]n1-c1ccccc1 [Ebselen] | 97.6% | 100% | 105% | 92.8% | 93.7% | 113% | 98.2% | 103% | 100% | 106% | 103% | 95.8% | 105% | 98.9% | 74.5% | 102% | 89.2% | 104% | 91.6% | 92.2% | 104% | 91.8% | 107% | 83.1% | 87.7% | > 10 µM | – | > 10 µM | > 10 µM | 0 | 0 | 1.1 | 0 | 1.7 | > 10 µM
